# Laboratory results taken from US10450317B2, “Notch pathway signaling inhibitor compounds” (Eli Lilly and Company, priority 2015, dated 2019).
# System: Atoh1
# Test: Hair cell marker induction in whole otic capsule culture (RT-PCR)
# Type: cell-based, mice
# Settings: otic capsule explants, 48 hours in culture, vs vehicle-only control, n of 12-17
# Description: The otic capsule (otic capsule explant), comprised of the cochlear bony labrinth and vestibular systems, is dissected from 1 to 4 day-old postnatal mice (transgenic strain: Atoh 1-driven nGFP; Lumpkin E A, et al., Gene Expr. Patterns, 2003, 3(4): 389-95) of both sexes generally according to the method described in Parker et al., Journal of Visualized Experiments, 2010, (36), e1685. The entire otic capsule is isolated from the parietal bone and maintained ex-vivo in a roller tube culture system for up to 3 days in medium containing DMEM, high glucose, 5% FBS, 5% horse serum, 1 μg/ml ampicillin.
# The otic capsule explant is used to evaluate test compound, in various delivery vehicles, penetrance into the inner ear. Tests are carried out with compositions of Compound 1, Isomer 2, (7.2 mM) in various delivery vehicles. […]
# The composition is allowed to remain for 1-2 hours then washed away with culture medium. […] The cochlea is broken open and the entire organ of Corti is then dissected out and prepared for quantitative RT-PCR to measure Atoh1 hair cell marker expression levels (as described in organ of Corti explant assay, above). […] Up-regulation of Atoh1 by Compound 1, Isomer 2, in all tested compositions (2-3 fold, n of 12-17) is measured in comparison to vehicle-only control-treated otic capsule explants after 48 hours in culture.
compound,measurement,value
"COc1ccc2c(c1)N1CCC(C)(C)C1=CC(=O)C2NC(=O)[C@H](C)NC(=O)CCC(F)(F)F (single isomer, unassigned) [Compound 1, Isomer 2]",Up-regulation of Atoh1 in all tested compositions,2-3 fold
